Results: patent US20040044226A1, “Estrogen receptor modulators” (priority 2003, published 2004)

System: MCF-7 cells
Assay: MCF-7 Estrogen Dependent Proliferation Assay
Assay type: cell-based
Conditions: Homo sapiens, MCF7, estradiol added to Estrogen Depleted Media (EDM), read-out: EC50 of stimulation of growth of MCF-7 cells
Description: MCF-7 Estrogen Dependent Proliferation Assay MCF-7 cells (ATCC #HTUB-22) are human mammary gland adenocarcinoma cells that require estrogen for growth. The growth media (GM) for the MCF-7 cells is Minimum Essential Media (without phenol red) supplemented with fetal bovine serum(FBS) to 10%. The FBS serves as the sole source of estrogen and this GM supports the full growth of the cells and is used for the routine growth of the cell cultures. When MCF-7 cells are placed in a media in which 10% Charcoal-Dextran treated fetal bovine serum (CD-FBS) is substituted for FBS, the cells will cease to divide but will remain viable. […] The addition of estradiol to EDM stimulates the growth of the MCF-7 cells in a dose dependent manner with an EC50 of […]. Growing MCF-7 cells are washed several times with EDM and the cultures then maintained in EDM for a minimum of 6 days in order to deplete the cells of endogenous estrogen. On day 0 (at the start of the assay), these estrogen depleted cells are plated into 96-well cell culture plates at a density of 1000 cells/well in EDM in a volume of 180 ul/well. […] At this point, the culture supernatants are aspirated, the cells washed 2× with PBS, the wash solution aspirated and the protein content of each well determined. Each drug dilution is evaluated on a minimum of 5 wells and the range of dilution of the test compounds in the assay is 0.001 nM to 1000 nM. […]

C[C@]12CC[C@@H]3c4ccc(O)cc4CC[C@H]3[C@@H]1CC[C@@H]2O [estradiol]
EC50: 2 pM
